Like-named read-outs stand apart in the source and are kept apart here.
Experiments:
[1] = tested on: patients with visual fatigue / impaired visual acuity; experiment: Case reports, Visual fatigue / visual acuity (Example 5); type: in vivo, human; conditions: for three-dimensional delicate work (visual acuity and depth perception): Patient 5d
Excerpt: Adult with a history of ADHD stabilised on a combination of a psychostimulant and sodium valproate.
Adult diagnosed with ADHD and stable on treatment with psychostimulants. […] Previously always relied on glasses to read because of an astigmatism.
Adult previously diagnosed with ADHD and no longer taking stimulant medication.

[2] = tested on: patients with schizophrenia; experiment: Case reports, Schizophrenia (Example 7); type: in vivo, human
Excerpt: Patient 7A: Adult, initially diagnosed with schizophrenia in adolescence. Long history of impairment with predominant paranoid delusions controlled with antipsychotic medication although still experiencing significant relapses despite consistent adherence to the pharmacotherapy regime. Significant social impairment, unable to sustain employment and requires support. Prominent negative symptoms and social deficits, unable to sustain eye contact when speaking. Speech slow, effortful and fatiguing. […] Prosody and rate of speech both improved. Patient 7B: Adult initially diagnosed with schizophrenia during adolescence, following many years of prominent positive symptoms with severe behavioural disturbances and violence requiring periods of hospitalisation. Patient has never been able to sustain employment and requires significant social support to maintain functioning. Prominent thought disorder and general social disengagement. […] Able to sustain and enjoy social interaction in a sheltered workshop which had never occurred previously.

[3] = tested on: patients with bipolar mood disorder; experiment: Case report, Bipolar (Example 8); type: in vivo, human
[4] = cited from earlier work
patients with PTSD [5] = conditions: cited from earlier work
[6] = tested on: patients with closed head injury; experiment: Case reports, Acquired Brain Injury (Example 4); type: in vivo, human
[7] = tested on: patient with spina bifida, ADHD, learning difficulties; experiment: Case report, Spina Bifida (Example 11); type: in vivo, human
[8] = tested on: patients with Alzheimer's type dementia; experiment: Case reports, Mild Cognitive Impairment (MCI) and Dementia (Example 1); type: in vivo, human
Excerpt: Patient 1A was an elderly person with history of impairment of cognitive function. Presumptive diagnosis of possible dementia of Alzheimers type.
Patient 1B was an elderly retired person with a 7 year history of Alzheimer's type dementia treated with the cholinesterase inhibitor Donepezil. […] Their cognitive function has gradually deteriorated since this time. […] Their reading was more fluent being better able to follow the meaning of the text. There was also improvement in their Stroop Test particularly in part three, the more cognitively demanding where their accuracy improved from 50 to 90%.

[9] = tested on: patient with tardive dyskinsia; experiment: Case report, Tardive Dyskinesia (Example 10); type: in vivo, human; conditions: Patient 10A; test dose of 1 mg
Excerpt: Patient 10A was an elderly person with a history of post-dramatic stress disorder treated with long-term antipsychotic medication.

patients with PTSD [10] = experiment: Case reports, PTSD (Example 9); type: in vivo, human
Excerpt: Patient 9A: Two year history of PTSD & Major Depression, unable to work for nine months. […] Eight months specialist psychiatric treatment including specific PTSD therapy program. […] No history of premorbid ASD or ADHD, possible mild reading difficulties.
Patient 9B: 40 year history of severe PTSD associated with severe re-experiencing phenomena, absence of any family relationships and social withdrawal, anger outbursts, chronic sleep disturbance exaggerated startle reflex and hypervigilance. Comorbid conditions including chronic major depression, alcohol dependence. Attended regular psychiatric treatment for in excess of five years. Treated with a combination of regular outpatient psychotherapy and pharmacotherapy including antidepressants and antipsychotic medications.
Patient 9C: history of PTSD associated with chronic impairment in previous alcohol dependence. Previous psychiatric admissions as a consequence of condition. Long-term antidepressant therapy together with intermittent use of antipsychotic medication.

[11] = tested on: individuals with symptoms of ADHD
[12] = tested on: patient with chronic neck pain; experiment: Case report, Chronic Pain (Example 12); type: in vivo, human
Protocol: A further sublingual dose of phenyloin 1 mg was taken 15 mins after the first dose.

[13] = Patient 4A, test dose less than 3 mg via buccal mucosa
[14] = Patient 4B, test sublingual dose 1 mg

## O=C1NC(=O)C(c2ccccc2)(c2ccccc2)N1 [phenyloin, 5,5-diphenylhydantoin]
[1]; Patient 5a, ADHD on psychostimulant and sodium valproate, 4 mg added
  overall functioning: further improvement in their overall functioning
[1]; Patient 5a, 4 mg added
  visual fatigue: visual fatigue no longer occurred
[1]; Patient 5b, ADHD on psychostimulants, 2 mg daily
  function: significant improvement in function
[1]; Patient 5b, 2 mg daily
  visual acuity: apparent improvement in their visual acuity
[1]; Patient 5c, 1 mg
  visual acuity whilst reading: immediate and unexpected improvement in visual acuity
[1]; Patient 5e, low dose
  judging distances when playing lawn bowls: improvement in their ability to accurately identify distances
[1]; Patient 5f, low dose
  visual judgement when playing soccer: improvement in visual judgement
[1]; 1 mg
  three-dimensional delicate work (visual acuity and depth perception): most consistent improvement
[1]; 2 mg
  three-dimensional delicate work (visual acuity and depth perception): improved
[2]; Patient 7A (on antipsychotic medication), 2 mg daily
  communication, prosody and rate of speech: significant improvement in ability to communicate with less effort
[2]; Patient 7B, 1 mg sublingual
  speech and reading aloud a standard text: significant improvement in speech and ability to read aloud a standard text
[2]; Patient 7B, phenyloin withdrawn
  effects when withdrawn: Positive effects abated
[3]; Patient 8A, bipolar mood disorder, compounded 2 mg capsule
  function: significant improvement in function
[3]; Patient 8A, 2 mg capsule
  improvements noted: enhanced organisation and planning • reduced effort required for social interaction • enhanced clarity of thought • a sense of being psychologically more normal
[3]; patients with bipolar spectrum disorders, much higher dose
  clinical effect of a much higher dose: good effect
[3]; some patients with bipolar mood disorder, very low dose added
  executive functioning: significant improvement in their executive functioning
[4]; high doses
  half-life: prolonged
[4]; in vivo
  metabolism: almost completely metabolized in the liver
  time for plasma concentration to reach steady-state level: 1-2 weeks
[4]; low doses
  half-life: less than 20 h
Patients with PTSD [5]; 300 mg per day in three doses, up to 400 mg/day, p<0.05
  increase in right brain volume: 6%
Patients with PTSD [5]; 300 to 400 mg/day
  improvements in memory and cognition: did not achieve statistical significance
[6]; Patient 4A, dose increased, second day
  clinical response to increased dose, following day: no dramatic improvement
[6]; Patient 4A, phenyloin ceased, followed by deterioration to pre-phenyloin functioning
  functioning over five days after cessation: gradual improvement in their functioning
[6]; Patient 4A, repeated sublingual dose
  developmental Eye Movement Test and Stroop test: consistent with the improved cognitive functioning
[6]; Patient 4A, same increased dose, third day
  clinical response to repeated dose, third day: noticeable deterioration in their ability to focus and organize their thinking
[6]; [13]
  ability to focus: dramatic and unexpected improvement in their ability to focus
  motor tics and vocalisations: repetitive chanting and hand movements ceased
[6]; Patient 4B, 3 mg
  reading: began reading for the first time in 10 years
[6]; Patient 4B, initial dose of 3 mg
  ability to organise and undertake tasks: unexpected and dramatic improvement in the ability to organise and undertake tasks
[6]; [14]
  effort required for communication: reduction in the effort required for communication
  subjective vision: enhanced clarity of vision
[6]; Patients 4A and 4B, further dose
  irritability and sense of being overwhelmed after a further dose: temporary relief
[6]; both cases (Patients 4A and 4B)
  duration of sustained improvements: over 12 months
[7]; Patient 11A
  duration of sustained improvements: over 12 months
[7]; Patient 11A (on low dose methylphenidate), sublingual dose 1 mg
  social interaction, conversation, reading aloud, fine motor control and handwriting: significant improvement
[7]; Patient 11A, daily in two divided doses
  dose associated with optimal response: 1.5 mg
[7]; Patient 11A, dose increased to 2 mg
  efficacy after dose increase: loss of efficacy
[8]; Patient 1A, possible dementia of Alzheimers type, 25 mg
  cognitive function, clinical response: some improvement but benefit was lost on continuation of this dose
[8]; Patient 1A, 3 mg daily
  duration of sustained benefit: over 24 months
[8]; Patient 1A, daily dose of 3 mg in divided doses orally
  cognitive function, clinical response: significant improvement
[8]; Patient 1A, withdrawal after 25 mg
  cognitive function after withdrawal of medication: transient improvement followed by a return to pre-phenyloin functioning
[8]; Patient 1B (treated with Donepezil), test dose 1 mg sublingual
  ability to read a standard text: significant improvement in their ability to read a standard text
[8]; Patient 1B, 1 mg sublingual
  time to improvement in reading after dose: ≤ 10 min
[8]; Patient 1B, 1 mg sublingual single dose
  functioning the following day after single dose: more able to initiate activities
[8]; Patient 1B, 1 mg sublingual, improved from 50
  Stroop Test part three accuracy after dose: 90%
[9]
  abnormal facial movements: abnormal facial movements ceased
Patients with PTSD [10]; Patient 9A
  duration improvements maintained: over three months
Patients with PTSD [10]; Patient 9A, 2 mg daily
  time to reported improvements: ≤ 24 h
Patients with PTSD [10]; Patient 9A, dose reduced to 1 mg and increased to 4 mg
  efficacy after dose change: reduction in efficacy
Patients with PTSD [10]; Patient 9B, low dose
  overall improvement described: 50%
Patients with PTSD [10]; Patient 9C
  most stable and efficacious dose: 0.5 mg daily
Patients with PTSD [10]; Patient 9C, 0.5 mg daily
  stable improvements: reduction of intrusive and negative thoughts • Enhanced interpersonal communication • Reduced effort of reading • Enhanced quality of sleep
Patients with PTSD [10]; Patient 9C, 3 mg
  adverse effects: became irritable and experienced word finding difficulties
  intrusive thoughts, mood stability and concentration: initial improved ability to dismiss and ignore distressing, intrusive thoughts
Patients with PTSD [10]; Patient 9C, periods of complete withdrawal
  functioning during complete withdrawal: return to their pre-phenyloin functioning including a worsening of their symptoms of PTSD
Patients with PTSD [10]; patients with PTSD, Ultra low dose
  functional capacity and symptoms of PTSD: significant improvements in functional capacity as well as a reduction in the symptoms of PTSD
[11]; Patient 3A
  duration of improvement on ceasing before deterioration: up to 7 days
  most efficacious dose: 0.1 mg daily
[11]; Patient 3A (on tricyclic antidepressant and dexamphetamine), 30 mg capsule
  ADHD symptoms, clinical response: temporarily associated with improvement in clarity of thoughts and eye contact during conversation
[11]; Patient 3A, lower dose
  clinical response on reintroduction at a lower dose: initial benefit that associated with rapid loss of efficacy
[11]; Patient 3A, phenyloin withdrawn
  functioning after withdrawal: initial improvement then later worsening to the pre-phenyloin functioning
[11]; in vivo
  side effects of higher doses: significant cognitive side effects
[11]; individuals with symptoms of ADHD, higher doses
  efficacy of higher doses: ineffective
[11]; individuals with symptoms of ADHD, ultra low doses
  symptoms of ADHD, clinical response: improvements were noted
[12]; additional sublingual dose 1 mg on top of 3 mg modified release
  freedom of movement without pain: further acute improvement in the freedom of movement without pain
[12]; daily dose 3 mg modified release capsule
  control of chronic pain on maintenance: control of the chronic pain was maintained
[12]; sublingual 1 mg
  duration of relief: approximately 10 min
  vision during relief: enhancement in their vision
[12]; sublingual 1 mg, from 10/10 (most severe) before dose
  intensity of the pain after dose: 5/10
[12]; ultra low dose
  invasive and distressing nature of cervical pain: reduced with unexpected efficacy and rapidity
